Test results published in US5358961A, “Pyrrolidine derivatives” (Jin Ro Limited, priority 1991, dated 1994).

Molecular target: T1, angiotensin converting enzyme (Oryctolagus cuniculus, UniProt P12822)
T1 construct: Rabbit lung acetone powder was extracted with 10 volumes of 50 mM sodium borate buffer; from tissue; host or cells: rabbit lung (acetone powder, borate buffer extract, 40,000 x g supernatant)
T1 sequence (P12822 34-1310): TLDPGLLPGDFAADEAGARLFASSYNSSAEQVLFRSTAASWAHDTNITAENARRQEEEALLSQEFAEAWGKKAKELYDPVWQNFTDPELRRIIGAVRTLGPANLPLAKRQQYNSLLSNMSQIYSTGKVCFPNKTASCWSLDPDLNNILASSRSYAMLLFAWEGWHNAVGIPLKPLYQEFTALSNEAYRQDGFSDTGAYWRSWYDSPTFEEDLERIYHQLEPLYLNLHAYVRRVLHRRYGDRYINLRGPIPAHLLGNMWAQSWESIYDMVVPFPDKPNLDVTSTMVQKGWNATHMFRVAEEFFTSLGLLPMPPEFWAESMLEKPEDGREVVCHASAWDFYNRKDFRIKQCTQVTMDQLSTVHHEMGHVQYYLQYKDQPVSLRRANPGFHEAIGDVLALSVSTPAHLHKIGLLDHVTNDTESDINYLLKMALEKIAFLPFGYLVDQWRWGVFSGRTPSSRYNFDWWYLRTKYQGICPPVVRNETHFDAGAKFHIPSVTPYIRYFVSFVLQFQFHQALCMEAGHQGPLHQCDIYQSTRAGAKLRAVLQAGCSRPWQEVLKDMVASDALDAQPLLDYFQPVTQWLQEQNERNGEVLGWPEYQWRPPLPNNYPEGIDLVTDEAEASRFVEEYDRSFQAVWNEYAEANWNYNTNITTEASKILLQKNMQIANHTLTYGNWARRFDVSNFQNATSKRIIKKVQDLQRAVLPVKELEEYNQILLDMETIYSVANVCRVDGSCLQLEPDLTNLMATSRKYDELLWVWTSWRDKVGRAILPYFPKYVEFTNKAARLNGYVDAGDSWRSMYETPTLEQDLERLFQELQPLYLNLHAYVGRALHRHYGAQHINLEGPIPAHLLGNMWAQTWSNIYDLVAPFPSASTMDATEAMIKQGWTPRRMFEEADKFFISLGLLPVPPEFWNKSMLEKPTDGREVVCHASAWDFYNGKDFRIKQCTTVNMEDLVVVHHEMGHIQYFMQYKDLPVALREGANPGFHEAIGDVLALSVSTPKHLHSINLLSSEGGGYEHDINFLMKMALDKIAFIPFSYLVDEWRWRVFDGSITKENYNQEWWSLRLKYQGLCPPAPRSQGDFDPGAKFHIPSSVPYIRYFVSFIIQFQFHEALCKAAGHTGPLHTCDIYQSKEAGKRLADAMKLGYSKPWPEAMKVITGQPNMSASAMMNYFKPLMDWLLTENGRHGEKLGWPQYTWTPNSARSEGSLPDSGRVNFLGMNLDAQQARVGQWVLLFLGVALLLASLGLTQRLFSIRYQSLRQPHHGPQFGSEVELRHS
Experiment: Inhibitory activity of angiotensin converting enzyme (rabbit lung acetone powder extract, HHL substrate, modified Cushman method)
Type: biochemical
Settings: preincubated 30 minutes, reacted with HHL at 37° C. for 30 minutes; for inhibition at 0.0002 µM: inhibitor concentration 2 × 10^-4 μM; for inhibition at 20 pM: inhibitor concentration 2 × 10^-5 μM
Procedure: The inhibitory activity of angiotensin converting enzyme for the compounds of this invention prepared by above examples was determined as follows;
The inhibitory activity was determined by using a modification of the method of Cushman, et al. [Biochemical Pharmacology, 20, 1637(1971)] Rabbit lung acetone powder was extracted with 10 volumes of 50 mM sodium borate buffer solution(pH 8.3) by homogenization at 4° C. and centrifuged for 40 minutes at 40,000 ×g.
The supernatant which contained angiotensin converting enzyme was used for ACE assay. Hippuryl-L-histidyl-L-leucine(HHL) was used as a substrate of enzymatic reaction and the reaction was determined in 13×100 mm of test tube.
The assay mixture (total volume, 0.25 ml) consisted of 50 mM sodium borate buffer (pH 8.3), 300 mM sodium chloride, and 5 mM HHL(pH 8.3), and they were reacted by addition of 0~10 mU of rabbit lung acetone powder extract for 30 minutes at 37° C.
The volume of enzyme extract was 0.15 ml or below and the reaction solution was preincubated at 37° C. for 30 minutes without the substrate and after adding HHL reacted for 30 minutes, the reaction was terminated by addition of 0.25 ml of 1N-HCl aqueous solution.
In the case of blank assay, hydrochloric acid was added before adding the enzyme extract. Hippuric acid was extracted with 1.5 ml of ethyl acetate which was separated by centrifuging at 3,000 rpm for 10 minutes. 1.0ml of ethyl acetate layer was transferred into the test tube and evaporated at 90° C. for 1 hour on temp-block.
Hippuric acid was dissolved in 1.0 ml of 50 mM sodium borate buffer (pH 8.3) and qualified from its absorbance at 228 nm. The final concentration of inhibitor was adjusted to 2×10^-4, 2×10^-5 μM with sodium borate buffer solution(pH 8.3) and reaction solution without the substrate was preincubated for 30 minutes and after adding the substrate, it was reacted at 37° C. for 30 minutes and terminated with 1N-HCl.
The synthesized inhibitors with non-water soluble property were dissolved by ultrasonic treatment.

Row | SMILES | inhibition at 0.0002 µM | inhibition at 20 pM
1 | CCCCCCCCCCCCCCCCCCSCC(COP(=O)(O)SC[C@@H](C)C(=O)N1CCC[C@H]1C(=O)OCc1ccc([N+](=O)[O-])cc1)OC(C)=O (mixture of isomers) [Compound 7, rac-1-S-octadecyl-2-O-acetyl-thioglyceryl-3-phosphoryl captopril-p-nitrobenzyl ester] | 78% | 43%
2 | CCCCCCCCCCCCCCCCCCOCC(COP(=O)(O)SC[C@@H](C)C(=O)N1CCC[C@H]1C(=O)OCc1ccc([N+](=O)[O-])cc1)OC(C)=O (mixture of isomers) [Compound 3, rac-1-O-octadecyl-2-O-acetyl-glyceryl-3-phosphoryl captopril-p-nitrobenzyl ester] | 85% | 60%
3 | CCCCCCCCCCCCCCCCCCOCC(COP(=O)(O)SC[C@@H](C)C(=O)N1CCC[C@H]1C(=O)O)OC(C)=O (mixture of isomers) [Compound 4, rac-1-O-octadecyl-2-O-acetyl-glyceryl-3-phosphoryl captopril] | 98% | 98%
4 | CCCCCCCCCCCCCCCCCCSCC(COP(=O)(O)SC[C@@H](C)C(=O)N1CCC[C@H]1C(=O)OCc1ccc([N+](=O)[O-])cc1)OC(=O)CCCCCCCCCCCCCCC (mixture of isomers) [Compound 5, rac-1-S-octadecyl-2-O-palmitoyl-thioglyceryl-3-phosphoryl captopril-p-nitrobenzyl ester] | 31% | 4%
5 | CCCCCCCCCCCCCCCCCCSCC(COP(=O)(O)SC[C@@H](C)C(=O)N1CCC[C@H]1C(=O)O)OC(C)=O (mixture of isomers) [Compound 8, rac-1-S-octadecyl-2-O-acetyl-thioglyceryl-3-phosphoryl captopril] | 90% | 80%
6 | CCCCCCCCCCCCCCCCCCOCC(COP(=O)(O)SC[C@@H](C)C(=O)N1CCC[C@H]1C(=O)OCc1ccc([N+](=O)[O-])cc1)OC(=O)CCCCCCCCCCCCCCC (mixture of isomers) [Compound 1, rac-1-O-octadecyl-2-O-palmitoyl-glyceryl-3-phosphorylcaptopril-p-nitrobenzyl ester] | 77% | 39%
7 | CCCCCCCCCCCCCCCCCCOCC(COP(=O)(O)SC[C@@H](C)C(=O)N1CCC[C@H]1C(=O)O)OC(=O)CCCCCCCCCCCCCCC (mixture of isomers) [Compound 2, rac-1-O-octadecyl-2-O-palmitoyl-glyceryl-3-phosphoryl captopril] | 97% | 80%
8 | CCCCCCCCCCCCCCCCCCSCC(COP(=O)(O)SC[C@@H](C)C(=O)N1CCC[C@H]1C(=O)O)OC(=O)CCCCCCCCCCCCCCC (mixture of isomers) [Compound 6, rac-1-S-octadecyl-2-O-palmitoyl-thioglyceryl-3-phosphoryl captopril] | 92% | 70%
